Data taken from PMC5879690 (Proceedings of the National Academy of Sciences of the …, 2018).

Target: indoleamine 2,3-dioxygenase (IDO1) (Homo sapiens, UniProt P14902)
Test: enzyme activity assay, N-formylkynurenine production
Assay type: biochemical

indoleamine 2,3-dioxygenase (IDO1), sequence (P14902 whole entry): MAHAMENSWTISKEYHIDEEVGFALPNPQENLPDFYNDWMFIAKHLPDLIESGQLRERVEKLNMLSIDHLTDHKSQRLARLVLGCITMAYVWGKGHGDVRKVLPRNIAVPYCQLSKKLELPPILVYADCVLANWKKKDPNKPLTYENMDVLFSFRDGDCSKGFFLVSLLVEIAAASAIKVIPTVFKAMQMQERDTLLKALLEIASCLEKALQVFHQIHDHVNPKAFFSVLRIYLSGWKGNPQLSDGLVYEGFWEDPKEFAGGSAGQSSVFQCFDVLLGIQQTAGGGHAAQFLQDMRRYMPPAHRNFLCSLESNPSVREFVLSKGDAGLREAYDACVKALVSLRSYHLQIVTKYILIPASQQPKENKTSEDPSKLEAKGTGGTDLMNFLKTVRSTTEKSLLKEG

Question: Which “enzyme activity assay, N-formylkynurenine production” value does the source give for N[C@H](Cc1c[nH]c2ccccc12)C(=O)O [D-tryptophan] here?
Answer: Its value is “D-tryptophan was used as the substrate, which unlike L-tryptophan, does not cause substrate inhibition”.
